Assay results reported in the NIST ThermoML archive (doi:10.1016/j.tca.2004.11.004).
Numbers after ± are expanded uncertainties.

Experiments:
[1] = Molar enthalpy of transition or fusion; conditions: Crystal; DSC
[2] = Crystal; DTA

Structure (SMILES) | Molar enthalpy of transition or fusion [1] [kcal/mol] | Normal melting temperature [2] [°C]
CC(=O)[O-].[K+] [potassium ethanoate] | 2.87 ± 0.0956 | 305.2 ± 0.4
CC(=O)[O-].[Cs+] [cesium acetate] | 2.63 ± 0.0956 | 191.6 ± 0.4
CC(=O)[O-].[Li+] [lithium acetate] | 3.01 ± 0.0956 | 283.5 ± 0.4

Next, values leading:

Molar enthalpy of transition or fusion [1] [kcal/mol] | Normal melting temperature [2] [°C] | Structure (SMILES)
4.16 ± 0.0956 | 329.4 ± 0.4 | CC(=O)[O-].[Na+] [sodium ethanoate]
2.13 ± 0.191 | 240.5 ± 0.4 | CC(=O)[O-].[Rb+] [rubidium acetate]
